Literature values in patent US5990317A, “2-(1H-4(5)-imidazoyl) cyclopropyl compounds” (Gliatech, Inc., priority 1998, dated 1999).
Read-outs that look alike come from different tables or passages of the source.

Tests used:
arousal EEG pattern = conditions: intraventricular, rabbits; cited from earlier work
[1] = system: spontaneous locomotor activity, grooming and exploratory behavior; conditions: intraventricular, saline and pentobarbital-treated rats; cited from earlier work
H3 receptor [2] = conditions: rats; cited from earlier work
H3 receptor [3] = conditions: cat; cited from earlier work
[4] = system: electrically-induced convulsions; conditions: cited from earlier work
histamine = conditions: in vivo; cited from earlier work

NCCc1c[nH]cn1 [histamine]
arousal EEG pattern (arousal EEG pattern): induces the appearances of an arousal EEG pattern
spontaneous locomotor activity, grooming, and exploratory behavior [1]: increased spontaneous locomotor activity, grooming and exploratory behavior

S=C(NC1CCCCC1)N1CCC(c2cnc[nH]2)CC1 [thioperamide]
slow wave and REM sleep (H3 receptor [2]): decrease slow wave and REM sleep
wakefulness (H3 receptor [2]): increase wakefulness
wakefulness (H3 receptor [3]): enhanced wakefulness in a dose-dependent fashion
durations of every convulsive phase ([4]; electrically-induced convulsions): significantly and dose-dependently decrease the durations of every convulsive phase
electroconvulsive threshold ([4]; in vivo): increase the electroconvulsive threshold
synthesis and release of histamine (histamine): increase in synthesis and release of histamine
